# Measurements from patent US6528049B2, “Bisexual attractants, aggregants and arrestants for adults and larvae of codling moth and other species of lepidoptera” (Trece, Inc., priority 1999, dated 2003).
# Assays:
# Format in all cases: in vivo, Cydia pomonella
# codling moth [1] = assay: Field study of individual alcohols, aldehydes and esters; conditions: individual compounds typically of purity 90-98%
# Text: Attractive activity of these compounds for male and female codling moth was compared to purified ethyl (2E,4Z)-2,4-decadienoate.
# When the cumulative evaluation of all studied compounds and/or blends containing aldehyde, alcohol, ester and terpene compounds was made, the following results clearly confirmed the findings seen in Table 3.
# codling moth [2] = assay: Inherent attractancy field test of HPV blends in baited sticky traps in walnut orchard; conditions: walnut orchard, blends 10 mg/white septa, ethyl (2E,4Z)-2,4-decadienoate 5 mg
# Description: The blends listed in Table 2 were then field tested in walnut orchards for their attractancy to male and female codling moths, and also for enhancement with synthetic codling moth pheromone and other additives identified above. Their total capture (both males and females), and their individual male and female capture were determined and results obtained, were compared to insect capture obtained with purified individual ester, compound #25 namely ethyl (2E,4Z)-2,4-decadienoate, and to the codling moth male sex pheromone compound #26 in Table 3.
# Individual blends containing representative aldehyde, alcohol, ester, monoterpene or sesquiterpene blends were provided in the traps in 10 mg/white septa.
# Individual host-plant volatile (HPV) blends identified by the #1-23 in Table 3 were tested for codling moth attractancy in a walnut orchard, and the results were compared to the isolated purified ethyl (2E,4Z)-2,4-decadienoate (#25), to pheromone (#26) and to solvent controls (#24).
# Twenty-five HPV blends and eight individual compounds were field tested. One synthetic blend, “ester blend #10,” elicited excellent codling moth attraction. In field tests, the other tested blends (see Table 3) and compounds captured no moths over a three month period, except for an “apple-skin surface extract” (Golden Delicious, ether solvent) (Σ=3 codling moth captured, 1♂: 2♀♀) and the individual compound, (E,E)-α-farnesene (Σ=1♂ codling moth captured). The field tests are presented in Table 3 and show attraction specificity for HPV ester blend #10.
# Sticky traps (ICP and IIB traps, Trécé, Inc. Salinas, Calif.) were baited with either extracts, blends of HPVs, or individual HPVs (>95% purity) that evaporated from impregnated rubber septa. HPV blends, or individual HPV compounds, were diluted in hexane and pipetted onto rubber septa at approximate doses of 10 mg/septum. A single treatment septum was placed in each sticky wing-trap, and hung approximately six meters high in the outer walnut canopy. Trap liners and treatment HPV septa were replaced every 10-14 days and pheromone septa every month and tests were conducted throughout two summers.
# A replicated series of different HPV treatment traps, control “blank” (unbaited) trap, and a commercial pheromone-baited trap (Trécé, Inc.) were distributed 5 trees apart throughout two distant Hartley walnut orchards and validated in 12 walnut orchards. The orchards were distinct, with one using three summer insecticide sprays and the other had no spraying. Thus, these test orchards had low vs. moderate relative populations of codling moths. Significant effects on the gender of codling moths captured were judged by paired tests, either T-test or a nonparametric test.
# codling moth [3] = assay: Low loading dose response trap study (FIG. 13); conditions: loading doses 0.1 μg to 10 mg in grey septa
# Description: In this study, both males (-Δ-) and females (-□-) responded to a threshold dose of less than 10 μg of the ester attractant, while at progressively higher loading rates females were more responsive than males.
# codling moth [4] = assay: Trap capture in a pheromone mating disruption treated walnut orchard; conditions: 10 mg/lure, FIG. 6
# Description: FIG. 6 illustrates total capture of codling moth males and females, in a mating disruption treated orchard by using pheromone lures (-▴-) and by using lures containing ethyl (2E,4Z)-2,4-decadienoate (-♦-) (10 mg/lure)
# codling moth [5] = assay: Trap capture with proportional mixes of ethyl 2,4-decadienoate isomers; conditions: 1 mg dose/gray septum
# Description: Additionally, studies were performed to determine the attraction of codling moth to proportional mixes of (2E,4Z) and (2E,4E) isomers of ethyl 2,4-decadienoate and highly purified samples of each. Traps were baited with 1 mg dose/gray septum.
# codling moth [6] = assay: Sticky traps baited with the single compound or pheromone
# Text: FIG. 5 illustrates mean attraction of female and male codling moths to sticky traps baited with a single host plant volatile, ethyl (2E,4Z)-2,4-decadienoate. The attraction was followed over a two month period.
# codling moths = assay: Effect of sample purity on trap capture
# Description: Additional purification procedures were conducted to show the differences and superiority of purified pear and apple volatiles over commercially available products. For that purpose, extracts were purified from commercially available compounds, typically available in only about 80-85% purity, to a purity between 90-100%, preferably over 98% purity. As the purity of the sample of ethyl (2E,4Z)-2,4-decadienoate increased so also did its attractancy to codling moths. For example, the mean captures (±SEM) were 4.5 (±2.0) for an 86% pure sample, 6.5 (±4.4) for a 93.6% pure sample and 9.3 (±3.2) for 98.8% pure sample.
# [7] = tested on: first-instar or neonate larval worms of the codling moth; assay: Dual-choice larval orientation bioassay in petri dishes
# Description: Behavioral orientation responses in the laboratory of first-instar or neonate larval worms of the codling moth are seen in Table 16. Data shown in Table 16 represents means of to 50 bioassay replications using five neonates per experiment conducted in small areas (10 cm diameter petri dishes). Experiments were dual-choice tests, where the released neonate larvae crawled and made perceptual choices between two small (one cm diameter) filter paper discs, with one disk treated with 1 ug or 10 ug of ethyl (2E,4Z) decadienoate and the other disc treated with an equivalent volume of solvent (methylene chloride).
# [8] = Table 15, sticky trap, 3 traps, 43 trap checks (pheromone: 1 trap, 19 trap checks)
# [9] = five neonates per experiment, disc with 1 ug or 10 ug vs solvent disc
structure (smiles),measurement,setting,value
"CCCCC/C=C\C=C\C(=O)OCC [Ethyl (2E,4Z)-2,4-Decadienoate, ethyl (2E,4Z)-2,4-decadienoate]",attractancy to male and female codling moth (in words),codling moth [1],most active
same,FEMALE CM Captured with HPV; ♀♀/trap night ± SEM,codling moth [2],2.04 ± 0.85 ♀♀/trap night
same,MALE CM Captured with HPV; ♂♂/trap/night ± SEM,codling moth [2],1.42 ± 0.59 ♂♂/trap/night
same,Total CM Captured with HPV: (CM/trap/night ± SEM),codling moth [2],3.46 ± 1.44 CM/trap/night
same,Total CM Captured with HPV: (CM/trap/night ± SEM),codling moth [2]; listed as #25,3.46 CM/trap/night
same,threshold dose to which males and females responded,codling moth [3],less than 10 μg
same,number of codling moths captured relative to lures with pheromone only,codling moth [4],more than double
same,Female CM Captured ♀♀/trap/night ± SEM,codling moth [5],0.76 ± 0.10 ♀♀/trap/night
same,MALE CM Captured: ♂♂/trap/night ± SEM,codling moth [5],0.62 ± 0.29 ♂♂/trap/night
same,Total CM Captured: CM/trap ± SEM,codling moth [5],1.38 ± 0.37 CM/trap
same,Female Capture: Sum:,"codling moth [6]; Table 15, sticky trap",76.4 Moths/Trap/Night
same,Male Capture: Sum:,"codling moth [6]; Table 15, sticky trap",24.9 Moths/Trap/Night
same,Female Capture: Mean ± SEM,codling moth [6]; [8],1.78 ± 0.45 Moths/Trap/Night
same,Male Capture: Mean ± SEM,codling moth [6]; [8],0.58 ± 0.12 Moths/Trap/Night
same,attractiveness relative to pheromone,"codling moth [6]; sticky traps, two month period",approximately 48%
same,mean captures (±SEM),codling moths; 86% pure sample,4.5 (±2.0)
same,mean captures (±SEM),codling moths; 93.6% pure sample,6.5 (±4.4)
same,mean captures (±SEM),codling moths; 98.8% pure sample,9.3 (±3.2)
same,Arrestment; average time (sec) on or under disc:,[7]; 1 ug dose of attractant,19.7 ± 5.6 s
same,Arrestment; average time (sec) on or under disc:,[7]; 10 ug dose of attractant,33.0 ± 10.7 s
same,Attraction; average number of neonates contacting disc: x ± SEM,[7]; [9],4.5 ± 0.9
same,Latency: average time (sec) to first arrive at disc: x ± SEM,[7]; [9],74.5 ± 16.1 s
